# Key:
# [1] = test system: Mycosphaerella graminicola; Anamorph: Septoria tritici; Bayer Code SEPTTR; assay: Fungicidal activity against leaf blotch of wheat, one-day protectant (1DP); assay type: in vivo; conditions: wheat plants (variety Yuma), % disease control rating
# Method: (§1) Evaluation of Fungicidal Activity: Leaf Blotch of Wheat (Mycosphaerella graminicola; Anamorph: Septoria tritici; Bayer Code […]) Wheat plants (variety Yuma) were grown from seed in a greenhouse in 50% mineral soil/50% soil-less Metro mix until the first leaf was fully emerged, with 7-10 seedlings per pot. These plants were inoculated with an aqueous spore suspension of Septoria tritici either prior to or after fungicide treatments. After inoculation the plants were kept in 100% relative humidity (one day in a dark dew chamber followed by two to three days in a lighted dew chamber) to permit spores to germinate and infect the leaf. The plants were then transferred to a greenhouse for disease to develop. The following table presents the activity of typical compounds of the present disclosure when evaluated in these experiments. The effectiveness of the test compounds in controlling disease was determined by assessing the severity of disease on treated plants, then converting the severity to percent control based on the level of disease on untreated, inoculated plants.
# [2] = test system: Mycosphaerella graminicola; Anamorph: Septoria tritici; Bayer Code SEPTTR; assay: Fungicidal activity against leaf blotch of wheat, three-day curative (3DC); assay type: in vivo; conditions: wheat plants (variety Yuma), % disease control rating
# Method: as §1
melting point [°C],SMILES,SEPTTR 100 PPM 1DP [1],SEPTTR 100 PPM 3DC [2]
141.6 to 142.6,"Cn1c(=N)c(F)cn(C(=O)c2cc(Cl)cc(Cl)c2)c1=O [Compound 1, 1-(3,5-dichlorobenzoyl)-5-fluoro-4-imino-3-methyl-3,4-dihydropyrimidin-2(1H)-one]",A (76-100),A (76-100)
103 to 107,Cc1ccc(C(=O)n2cc(F)c(=N)n(C)c2=O)cc1 [Compound 2],A (76-100),A (76-100)

# Reference: patent publication US9271497B2, “1-(substituted-benzoyl)-5-fluoro-4-imino-3-methyl-3,4-dihydropyrimidin-2(1H)-one derivatives” (DOW AGROSCIENCES LLC, priority 2012, dated 2016)
